Experimental data: US10981860B2, “Caspase inhibitor and pharmaceutical composition, use and therapeutic method thereof” (Chia Tai Tianqing Pharmaceutical Group Co., Ltd., priority 2016, dated 2021)

Tested on: Anti-Fas-induced Jurkat cells
Experiment: Anti-Fas-induced apoptosis of Jurkat cells in vitro (Caspase 3 substrate Ac-DEVD-AMC fluorescence)
Format: cell-based
Settings: Homo sapiens; Jurkat Clone E6-1, Anti-Fas 50 ng/mL, 24 hours, Ac-DEVD-AMC 10 μM

EC50	Structure (SMILES)
9.37 nM	O=C(O)C[C@H](NC(=O)[C@@H]1COCCN(C(=O)c2cc(-c3ccccc3Cl)on2)C1)C(=O)COc1c(F)c(F)cc(F)c1F [Example 126]
383 nM	CC(C)(C)c1ccccc1NC(=O)C(=O)N1CCCO[C@@H](C(=O)N[C@@H](CC(=O)O)C(=O)COc2c(F)c(F)cc(F)c2F)C1 [Example 110]
10.3 nM	O=C(O)C[C@H](NC(=O)C1CCN(C(=O)c2cccnc2)CC1)C(=O)COc1c(F)c(F)cc(F)c1F [Example 36]
39.7 nM	Cn1c(C(=O)N2CCC(C(=O)N[C@@H](CC(=O)OC(C)(C)C)C(=O)COc3c(F)c(F)cc(F)c3F)CC2)cc2ccccc21 [Example 44]
5.8 nM	O=C(O)C[C@H](NC(=O)[C@@H]1CCCCN(C(=O)c2noc3ccccc23)C1)C(=O)COc1c(F)c(F)cc(F)c1F [Example 122]
14.6 nM	O=C(O)C[C@H](NC(=O)C1CCN(C(=O)OCC(F)(F)F)CC1)C(=O)COc1c(F)c(F)cc(F)c1F [Example 67]
7.14 nM	O=C(O)C[C@H](NC(=O)[C@H]1COCCN(C(=O)c2noc3ccccc23)C1)C(=O)COc1c(F)c(F)cc(F)c1F [Example 127]
64.7 nM	CN(C(=O)C(=O)N1CCC(C(=O)N[C@@H](CC(=O)O)C(=O)COc2c(F)c(F)cc(F)c2F)CC1)c1ccccc1C(C)(C)C [Example 64]
124 nM	CC(C)(C)c1ccccc1NC(=O)C(=O)N1CCOC(C(=O)N[C@@H](CC(=O)O)C(=O)COc2c(F)c(F)cc(F)c2F)C1 (some centres unmarked) [Example 8]
698 nM	CC1(C(=O)N[C@@H](CC(=O)O)C(=O)COc2c(F)c(F)cc(F)c2F)CCN(C(=O)C(=O)Nc2ccccc2C(C)(C)C)CC1 [Example 20]
35.9 nM	O=C(O)C[C@H](NC(=O)C1CCN(C(=O)NCc2ccccc2)CC1)C(=O)COc1c(F)c(F)cc(F)c1F [Example 78]
27.2 nM	O=C(O)C[C@H](NC(=O)C1CCN(C(=O)c2nsc3ccccc23)CC1)C(=O)COc1c(F)c(F)cc(F)c1F [Example 51]
23 nM	CC(C)(C)c1ccccc1NC(=O)C(=O)N1CCCC[C@](C)(C(=O)N[C@@H](CC(=O)O)C(=O)COc2c(F)c(F)cc(F)c2F)C1 [Example 111]
41.6 nM	CC(C)(C)c1ccccc1NC(=O)C(=O)N1CCCC[C@@H](C(=O)N[C@@H](CC(=O)O)C(=O)COc2c(F)c(F)cc(F)c2F)C1 (single isomer, unassigned) [Example 10]
165 nM	CC(C)(C)c1ccccc1NC(=O)C(=O)N1CCCC[C@@](C)(C(=O)N[C@@H](CC(=O)O)C(=O)COc2c(F)c(F)cc(F)c2F)C1 [Example 112]
34.2 nM	O=C(O)C[C@H](NC(=O)C1CCN(C(=O)OCc2ccccc2)C1)C(=O)COc1c(F)c(F)cc(F)c1F (some centres unmarked) [Example 22]
8.1 nM	O=C(O)C[C@H](NC(=O)[C@@H]1COCCN(C(=O)C(=O)Nc2ccccc2Cl)C1)C(=O)COc1c(F)c(F)cc(F)c1F [Example 130]
62 nM	O=C(O)C[C@H](NC(=O)C1CCN(C(=O)OCc2ccc(Cl)cc2Cl)CC1)C(=O)COc1c(F)c(F)cc(F)c1F [Example 91]
43.9 nM	Cc1ccc(C)c(CCNC(=O)C(=O)N2CCC(C(=O)N[C@@H](CC(=O)O)C(=O)COc3c(F)c(F)cc(F)c3F)CC2)c1 [Example 94]
28.7 nM	CC(C)(C)c1ccccc1NC(=O)C(=O)N1CCOC[C@H](C(=O)N[C@@H](CC(=O)O)C(=O)COc2c(F)c(F)cc(F)c2F)C1 [Example 124]

EC50	Structure (SMILES)
112 nM	CC(C)[C@@H]1CC[C@@H](C)C[C@H]1OC(=O)N1CCC(C(=O)N[C@@H](CC(=O)O)C(=O)COc2c(F)c(F)cc(F)c2F)CC1 [Example 97]
26 nM	O=C(O)C[C@H](NC(=O)C1CCN(C(=O)NC2CCCC2)CC1)C(=O)COc1c(F)c(F)cc(F)c1F [Example 79]
552 nM	CC(C)(C)c1ccccc1NC(=O)C(=O)N[C@H]1CC[C@H](C(=O)N[C@@H](CC(=O)O)C(=O)COc2c(F)c(F)cc(F)c2F)CC1 [Example 6]
50.4 nM	O=C(O)C[C@H](NC(=O)C1CCN(C(=O)C(=O)NC2CCCC2)CC1)C(=O)COc1c(F)c(F)cc(F)c1F [Example 61]
70.7 nM	O=C(O)C[C@H](NC(=O)[C@H]1CC[C@H](NC(=O)OCc2ccccc2)CC1)C(=O)COc1c(F)c(F)cc(F)c1F [Example 25]
33.2 nM	Cc1ccc(C)c(CNC(=O)C(=O)N2CCC(C(=O)N[C@@H](CC(=O)O)C(=O)COc3c(F)c(F)cc(F)c3F)CC2)c1 [Example 95]
52.5 nM	CC(C)(C)c1ccccc1NC(=O)C(=O)N1CC=CC[C@@H](C(=O)N[C@@H](CC(=O)O)C(=O)COc2c(F)c(F)cc(F)c2F)C1 [Example 12]
9.15 nM	O=C(O)C[C@H](NC(=O)[C@@H]1COCCN(C(=O)c2noc3ccccc23)C1)C(=O)COc1c(F)c(F)cc(F)c1F [Example 128]
27.2 nM	CC(C)(C)c1ccccc1NC(=O)C(=O)N1CC=CC[C@H](C(=O)N[C@@H](CC(=O)O)C(=O)COc2c(F)c(F)cc(F)c2F)C1 [Example 11]
24 nM	O=C(O)C[C@H](NC(=O)C1CCN(c2nc3ccccc3o2)CC1)C(=O)COc1c(F)c(F)cc(F)c1F [Example 83]
96 nM	CC(C)[C@H]1CC[C@H](C)C[C@@H]1OC(=O)N1CCC(C(=O)N[C@@H](CC(=O)O)C(=O)COc2c(F)c(F)cc(F)c2F)CC1 [Example 77]
215 nM	O=C(O)C[C@H](NC(=O)c1ccc(NC(=O)OCc2ccccc2)cc1)C(=O)COc1c(F)c(F)cc(F)c1F [Example 23]
97.9 nM	CC(C)(C)c1ccccc1NC(=O)C(=O)N1CCC(F)(C(=O)N[C@@H](CC(=O)O)C(=O)COc2c(F)c(F)cc(F)c2F)CC1 [Example 21]
157 nM	CC(C)(C)c1cc(Cl)ccc1NC(=O)C(=O)N1CCC(C(=O)N[C@@H](CC(=O)O)C(=O)COc2c(F)c(F)cc(F)c2F)CC1 [Example 59]
16.3 nM	O=C(O)C[C@H](NC(=O)C1CCN(C(=O)c2ccno2)CC1)C(=O)COc1c(F)c(F)cc(F)c1F [Example 85]
29.8 nM	O=C(O)C[C@H](NC(=O)C1CCN(c2nc3cc(F)ccc3o2)CC1)C(=O)COc1c(F)c(F)cc(F)c1F [Example 104]
35 nM	O=C(O)C[C@H](NC(=O)C1CCN(c2noc3ccccc23)CC1)C(=O)COc1c(F)c(F)cc(F)c1F [Example 84]
29.3 nM	O=C(O)C[C@H](NC(=O)C1CCN(C(=O)OCc2ccccc2)CC1)C(=O)COc1c(F)c(F)cc(F)c1F [Example 71]
5.65 nM	O=C(O)C[C@H](NC(=O)[C@H]1COCCN(C(=O)C(=O)Nc2ccccc2Cl)C1)C(=O)COc1c(F)c(F)cc(F)c1F [Example 129]
27.6 nM	O=C(O)C[C@H](NC(=O)CC1CN(C(=O)C2CCCC2)C1)C(=O)COc1c(F)c(F)cc(F)c1F [Example 105]

EC50	Structure (SMILES)
67.5 nM	CC(C)(C)c1ccccc1C(=O)N1CCC(C(=O)N[C@@H](CC(=O)O)C(=O)COc2c(F)c(F)cc(F)c2F)CC1 [Example 53]
22.1 nM	O=C(O)C[C@H](NC(=O)[C@@H]1CCCN(C(=O)OC2CCCC2)C1)C(=O)COc1c(F)c(F)cc(F)c1F [Example 28]
38.9 nM	CC(C)(C)c1ccccc1NC(=O)C(=O)N1CCOC[C@@H](C(=O)N[C@@H](CC(=O)O)C(=O)COc2c(F)c(F)cc(F)c2F)C1 [Example 123]
43 nM	O=C(O)C[C@H](NC(=O)C1CCN(C(=O)c2nccc3ccccc23)CC1)C(=O)COc1c(F)c(F)cc(F)c1F [Example 34]
25.2 nM	O=C(O)C[C@H](NC(=O)C1CCN(C(=O)c2nc3ccccc3[nH]2)CC1)C(=O)COc1c(F)c(F)cc(F)c1F [Example 42]
44.2 nM	O=C(O)C[C@H](NC(=O)C1CCN(C(=O)C(=O)N2CCCC2)CC1)C(=O)COc1c(F)c(F)cc(F)c1F [Example 90]
557 nM	CC(C)(C)c1ccccc1NC(=O)C(=O)N1CC[C@H](C(=O)N[C@@H](CC(=O)O)C(=O)COc2c(F)c(F)cc(F)c2F)C2CCCCC21 (some centres unmarked) [Example 18]
417 nM	CC(C)(C)c1ccccc1NC(=O)C(=O)N1C[C@H](C(=O)N[C@@H](CC(=O)O)C(=O)COc2c(F)c(F)cc(F)c2F)Cc2ccccc21 [Example 16]
16.6 nM	O=C(O)C[C@H](NC(=O)C1CCN(C(=O)c2nc3ccccc3s2)CC1)C(=O)COc1c(F)c(F)cc(F)c1F [Example 58]
65.5 nM	CC(C)(C)c1ccccc1NC(=O)C(=O)N1CCCC[C@H](C(=O)N[C@@H](CC(=O)O)C(=O)COc2c(F)c(F)cc(F)c2F)C1 (single isomer, unassigned) [Example 9]
49.7 nM	O=C(O)C[C@H](NC(=O)C1CN(C(=O)OCc2ccccc2)CCO1)C(=O)COc1c(F)c(F)cc(F)c1F (some centres unmarked) [Example 24]
38 nM	O=C(O)C[C@H](NC(=O)C1CCN(C(=O)C(=O)NCC2CCCC2)CC1)C(=O)COc1c(F)c(F)cc(F)c1F [Example 63]
49.6 nM	O=C(O)C[C@H](NC(=O)C1CCN(C(=O)C(=O)Nc2ccc(Cl)cc2C(F)(F)F)CC1)C(=O)COc1c(F)c(F)cc(F)c1F [Example 60]
16.2 nM	O=C(O)C[C@H](NC(=O)[C@H]1COCCN(C(=O)c2cc(-c3ccccc3Cl)on2)C1)C(=O)COc1c(F)c(F)cc(F)c1F [Example 125]
289 nM	CC(C)(C)c1ccccc1NC(=O)C(=O)N1C[C@@H](C(=O)N[C@@H](CC(=O)O)C(=O)COc2c(F)c(F)cc(F)c2F)Cc2ccccc21 [Example 17]
38.6 nM	Cn1c(C(=O)N2CCC(C(=O)N[C@@H](CC(=O)O)C(=O)COc3c(F)c(F)cc(F)c3F)CC2)nc2ccccc21 [Example 43]
8.98 nM	O=C(O)C[C@H](NC(=O)C1CCN(C(=O)N2CCCC2)CC1)C(=O)COc1c(F)c(F)cc(F)c1F [Example 89]
21 nM	CC1(C(=O)N2CCC(C(=O)N[C@@H](CC(=O)O)C(=O)COc3c(F)c(F)cc(F)c3F)CC2)CCCC1 [Example 52]

Structure (SMILES)	EC50
O=C(O)C[C@H](NC(=O)C1CC2CCC(C1)N2C(=O)OCc1ccccc1)C(=O)COc1c(F)c(F)cc(F)c1F (some centres unmarked) [Example 14]	275 nM
O=C(O)C[C@H](NC(=O)C1CCN(S(=O)(=O)c2ccccc2)CC1)C(=O)COc1c(F)c(F)cc(F)c1F [Example 81]	959 nM
Cc1ccc(Cl)c(OC(=O)N2CCC(C(=O)N[C@@H](CC(=O)O)C(=O)COc3c(F)c(F)cc(F)c3F)CC2)c1 [Example 72]	17.9 nM
CC(C)OC(=O)N1CCC[C@@H](C(=O)N[C@@H](CC(=O)O)C(=O)COc2c(F)c(F)cc(F)c2F)C1 [Example 30]	14.5 nM
